18 compounds from PubChem BioAssay (NCI) can be followed below.

Common to all, as to test: NCI anticancer screen, dose series, 48 h
The subject of assay [1] is A549 NSCLC.
Assay [2] relates to IGROV1 ovarian.
The test system of assay [3] is SK-MEL-2 melanoma.
Assay [4] has as its system OVCAR-4 ovarian.
The test system of assay [5] is COLO 205 colon.
The subject of assay [6] is OVCAR-3 ovarian.
In assay [7] the test system is HL-60(TB) leukemia.
Assay [8] concerns U251 CNS.

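All cell lines were grown in 96-well plates and treated with compound for 48 hours. GI50 is the concentration that inhibits growth by half. The concentration for full growth arrest is given as TGI.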 A value given as a limit tells only on which side of the number the result lay.

`CCCCCCCCCCCCCCCCCC(=O)[O][Sn]([CH2]CCC)([CH2]CCC)[CH2]CCC`: the GI50 in assay [1] is 0.153 µM; in assay [2], 0.154 µM; in assay [3], 0.171 µM; in assay [4], 0.108 µM; in assay [5], 0.171 µM; in assay [6] it was 0.126 µM. Besides, the values for the GI50 in assay [7] and in assay [8] were 0.179 µM and 0.153 µM, respectively. Also, the TGI in assay [1] was found to be 0.317 µM; in assay [2], 0.367 µM; in assay [3] it was 0.369 µM; in assay [4] it was 0.245 µM; in assay [5] it was 0.373 µM; in assay [6] it was 0.254 µM. Besides, the values for the TGI in assay [7] and in assay [8] were 0.489 µM and 0.319 µM, respectively.

Turning to `CN(C)c1cc2c(cc1Sc1nc3c(N)nccc3n1CCNCC(C)(C)C)OCO2`, the GI50 in assay [1] was 0.438 µM; in assay [2], 0.56 µM; in assay [3], 1.05 µM; in assay [4] it was 6.17 µM; in assay [5], 0.37 µM; in assay [6] it was 0.614 µM. The values for the GI50 in assay [7] and in assay [8] were 0.274 µM and 0.726 µM, respectively. Also, the TGI in assay [1] came out at 18.7 µM; in assay [2], 21.6 µM; in assay [3], 16.9 µM; in assay [4] it was 46.2 µM; in assay [5], 11.6 µM; in assay [6], 15.8 µM. The TGI was found to be 0.85 µM in assay [7] and 14.8 µM in assay [8].

On to `Cc1cc(N2CCOCC2)nc(N(CCNc2ccnc3cc(Cl)ccc23)Cc2ccco2)n1`, for which the GI50 was 6.2 µM in assay [1]; 3.92 µM in assay [2]; 2.14 µM in assay [3]; 2.4 µM in assay [4]; 2.34 µM in assay [5]; 3.21 µM in assay [8]. Besides, the TGI in assay [1] is 39.1 µM; in assay [2], 23.1 µM; in assay [3], 5.18 µM; in assay [4], 8.12 µM; in assay [5], greater than 100 µM; in assay [8], 12.4 µM.

As to `COc1ccc(C2=C(Br)C(=O)OC2)cc1Cl`, the GI50 in assay [1] was 18.5 µM; in assay [2], 45.9 µM; in assay [3], greater than 91.2 µM; in assay [4], 61.4 µM; in assay [5] it was 0.832 µM; in assay [6], 45.7 µM. The GI50 in assay [7] is 42.8 µM; in assay [8], 28.5 µM. For the same compound, the TGI in assay [1] is 53.6 µM; in assay [2], greater than 100 µM; in assay [3] it was greater than 100 µM; in assay [4], greater than 100 µM; in assay [5], greater than 30.9 µM; in assay [6], greater than 89.8 µM. For the same compound, the TGI in assay [7] was greater than 100 µM; in assay [8], greater than 91.1 µM.

As to `Oc1c(Cl)cc(C(c2cc(Cl)c(O)c(Cl)c2)C(c2cc(Cl)c(O)c(Cl)c2)c2cc(Cl)c(O)c(Cl)c2)cc1Cl`, the GI50 in assay [1] was 3.73 µM; in assay [2], 5.29 µM; in assay [3], 2.92 µM; in assay [4], 7.11 µM; in assay [5], 10.6 µM; in assay [6], 3.12 µM. The GI50 in assay [8] is 3.03 µM. Moreover, the TGI in assay [1] was 36.4 µM; in assay [2], 16.8 µM; in assay [3] it was 7.33 µM; in assay [4], 94.4 µM; in assay [5] it was 28.9 µM; in assay [6] it was 11.9 µM. Besides, the TGI in assay [8] came out at 10.7 µM.

With `O=C1C(=O)c2ccccc2C=C1[N+](=O)[O-]`, the TGI in assay [1] is greater than 100 µM; in assay [2], greater than 100 µM; in assay [3] it was 99.5 µM; in assay [4] it was greater than 100 µM; in assay [5], greater than 100 µM; in assay [6], 85.2 µM. Moreover, the TGI in assay [7] was 54.2 µM; in assay [8], greater than 100 µM.

In the case of `Oc1ccc(Cl)cc1Cc1cc(Cl)cc(Cc2cc(Cl)ccc2O)c1O`, the TGI amounted to 10.6 µM in assay [1]; 13.5 µM in assay [2]; 7.68 µM in assay [3]; 16.2 µM in assay [4]; 3.25 µM in assay [5]; 11 µM in assay [6]. Besides, the TGI is 8.38 µM in assay [7] and 11.8 µM in assay [8].

`NC(=O)c1ncn(C2OC(CO)C(O)C2O)n1` (stereo not given): the GI50 in assay [1] was 62 µM; in assay [2], greater than 100 µM; in assay [3], greater than 100 µM; in assay [4], greater than 100 µM; in assay [5], 55.2 µM; in assay [6], 74.9 µM. In assay [7], the GI50 is greater than 100 µM. Also, the TGI in assay [1], in assay [2], in assay [3], in assay [4], in assay [5] and in assay [6] was greater than 100 µM throughout. In assay [7], the TGI was greater than 100 µM.

With `CCCCN(CCCC)c1cc(C(=O)CCCCCN)c2ccccc2n1`, the GI50 in assay [1] was 1.78 µM; in assay [3], 2.56 µM; in assay [6] it was 2.02 µM; in assay [8] it was 1.77 µM. Also, the TGI in assay [1] was 3.38 µM; in assay [3], 4.45 µM; in assay [6], 3.79 µM; in assay [8], 3.23 µM.

For the compound `O=C(O)c1ccc([N+](=O)[O-])c(P(=O)(O)O)c1`, the TGI in assay [1], in assay [2], in assay [3], in assay [4], in assay [5] and in assay [6] was greater than 100 µM each time. Also, the TGI in assay [7] and in assay [8] was greater than 100 µM in each case.

On to `O=C(Nc1cccc(-n2cc(-c3ccncc3)c(-c3cc(O)cc(Cl)c3)n2)c1)Nc1ccc(Cl)c(Cl)c1`, for which the GI50 is 1.96 µM in assay [1]; 2.86 µM in assay [2]; 1.8 µM in assay [3]; 1.96 µM in assay [5]; 1.96 µM in assay [6]; 1.44 µM in assay [8]. For the same compound, the TGI in assay [1] was 7.54 µM; in assay [2], 9.23 µM; in assay [3] it was 4.04 µM; in assay [5], 3.78 µM; in assay [6], 5.05 µM; in assay [8], 3.09 µM.

Take `CCOC(=O)CC(=O)N(c1ccc(OC)cc1)C(C(=O)OC)c1ccccc1` (stereo not given): the TGI in assay [1], in assay [2], in assay [3], in assay [5] and in assay [6] was greater than 100 µM in each case.

As for `CCCCC(SC(=S)N(CC)CC)C(=O)Nc1nc(CC(=O)OCC)cs1` (stereo not given), the GI50 in assay [1] was 30.8 µM; in assay [2], 37.4 µM; in assay [3], 29.2 µM; in assay [4] it was 30.6 µM; in assay [6], 13.7 µM; in assay [7], 28.6 µM. The GI50 in assay [8] is 42.1 µM. Moreover, the TGI was greater than 100 µM in assay [1]; greater than 100 µM in assay [2]; 86 µM in assay [3]; greater than 100 µM in assay [4]; greater than 100 µM in assay [6]; 98.5 µM in assay [7]. Also, the TGI in assay [8] is greater than 100 µM.

`COC(=O)C1=C2C3=C(C(=O)c4ccccc4C3=O)N(Cc3ccccc3)C2(OC(C)=O)C=CC1=O` (stereo not given): the GI50 in assay [1] was 27.6 µM; in assay [2], 16.5 µM; in assay [3], 42.5 µM; in assay [4] it was 34.4 µM; in assay [5], 26.8 µM; in assay [8], 9.86 µM. Moreover, the TGI in assay [1] was greater than 100 µM; in assay [2], greater than 100 µM; in assay [3] it was greater than 100 µM; in assay [4], greater than 100 µM; in assay [5], greater than 100 µM; in assay [8], 39.4 µM.

For `Nc1ccccc1C#Cc1ccccc1C#Cc1ccccc1N`, the GI50 in assay [1] was 22.1 µM; in assay [2] it was 10.2 µM; in assay [3] it was 11.3 µM; in assay [4], 23.3 µM; in assay [5], 15 µM; in assay [6] it was 2.22 µM. In addition, in assay [8], the GI50 was 4.5 µM. In addition, the TGI is greater than 100 µM in assay [1]; 30.4 µM in assay [2]; 30.2 µM in assay [3]; 80.9 µM in assay [4]; 43.9 µM in assay [5]; 8.24 µM in assay [6]. In assay [8], this compound had a TGI of 17.3 µM.

As for `O=C(/C=C/c1ccccc1O)c1ccccc1`, the GI50 in assay [1] was 17 µM; in assay [2], 1.56 µM; in assay [5], 17.3 µM; in assay [6] it was 3.14 µM; in assay [7] it was 1.52 µM; in assay [8], 4.18 µM. For the same compound, the TGI was found to be 36.1 µM in assay [1]; 4.12 µM in assay [2]; 38 µM in assay [5]; 12.3 µM in assay [6]; 11.1 µM in assay [7]; 14.4 µM in assay [8].

Turning to `Cc1c(NC(=O)CCCl)c(=O)oc2c(C)c3occc(=O)c3cc12`, the TGI in assay [1], in assay [2], in assay [4], in assay [5], in assay [7] and in assay [8] was greater than 100 µM in each case.

As for `NCC(=O)Nc1ccc(-n2nc(C(F)(F)F)cc2-c2ccc3c(ccc4ccccc43)c2)cc1`, the GI50 in assay [1] is 0.959 µM; in assay [3], 1.82 µM; in assay [5], 1.36 µM; in assay [6], 1.34 µM; in assay [7], 1.3 µM. For the same compound, the TGI in assay [1] came to 2.41 µM; in assay [3] it was 3.48 µM; in assay [5], 2.89 µM; in assay [6] it was 2.65 µM; in assay [7], 3.42 µM.
